This assay concerns the target T1, PLK4 (Homo sapiens, UniProt O00444).
T1 sequence (O00444 1-970): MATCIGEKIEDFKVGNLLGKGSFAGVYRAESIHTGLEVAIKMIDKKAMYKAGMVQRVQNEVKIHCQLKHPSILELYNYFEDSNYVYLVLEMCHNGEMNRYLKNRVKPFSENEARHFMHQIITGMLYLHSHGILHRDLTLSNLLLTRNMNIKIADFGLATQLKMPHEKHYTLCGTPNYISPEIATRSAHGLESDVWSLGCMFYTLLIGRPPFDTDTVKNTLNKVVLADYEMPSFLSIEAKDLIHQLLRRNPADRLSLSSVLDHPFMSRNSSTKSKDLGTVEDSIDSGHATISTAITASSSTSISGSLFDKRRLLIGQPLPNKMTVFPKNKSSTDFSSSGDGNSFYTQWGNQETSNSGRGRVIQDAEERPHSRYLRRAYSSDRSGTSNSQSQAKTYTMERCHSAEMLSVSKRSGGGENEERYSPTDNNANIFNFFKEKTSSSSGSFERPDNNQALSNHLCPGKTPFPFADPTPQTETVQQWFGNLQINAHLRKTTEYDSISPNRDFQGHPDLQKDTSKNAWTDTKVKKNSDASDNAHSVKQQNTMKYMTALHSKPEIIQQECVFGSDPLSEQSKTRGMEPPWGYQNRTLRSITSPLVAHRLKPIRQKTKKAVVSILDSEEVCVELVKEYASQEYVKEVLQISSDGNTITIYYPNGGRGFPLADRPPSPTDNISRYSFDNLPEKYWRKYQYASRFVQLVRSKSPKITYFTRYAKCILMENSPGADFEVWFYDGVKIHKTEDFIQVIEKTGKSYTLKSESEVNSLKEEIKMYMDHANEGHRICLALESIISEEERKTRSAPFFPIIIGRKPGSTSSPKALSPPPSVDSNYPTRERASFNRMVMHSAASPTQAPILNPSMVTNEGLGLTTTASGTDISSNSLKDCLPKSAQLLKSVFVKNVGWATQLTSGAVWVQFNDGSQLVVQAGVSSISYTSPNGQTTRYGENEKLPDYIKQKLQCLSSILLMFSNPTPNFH
Kind of assay: Activity (IC50) of the Table 1 compounds as PLK4 inhibitors. The note with it: Table 1, IC50 class. Type of assay: biochemical.
By IC50 is commonly meant the midpoint of a concentration-inhibition curve. Read a high IC50 as weaker potency. Turning to `Cc1cc(Nc2nc(Sc3ccc(NC(=O)C4CC4)cc3)nc(C)c2C)n[nH]1`, the IC50 was under 100 nM.
Then `Cc1cc(Nc2nc(Sc3ccc(NC(=O)C4CCCC4)cc3)nc3c2C(C)CC3)n[nH]1` (stereo not drawn), with under 100 nM; and `COc1c(Nc2cc(C)[nH]n2)nc(Sc2ccc(NC(=O)C3CC3)cc2)nc1N1CCN(C(C)C)CC1`, with under 100 nM; and `COc1c(Nc2cc(C)[nH]n2)nc(Sc2ccc(NC(=O)C3CC3)cc2)nc1N1CCN(C(C)=O)CC1`, with under 100 nM.
Turning to `CCN1CCN(c2nc(Sc3ccc(NC(=O)C4CC4)cc3)nc(Nc3cc(C)[nH]n3)c2OC)CC1`, the IC50 is under 100 nM.
In the case of `COCCN1CCN(c2nc(Sc3ccc(NC(=O)C4CC4)cc3)nc(Nc3cc(C)[nH]n3)c2OC)CC1`, the concentration for half-maximal inhibition (IC50) is under 100 nM.
Regarding `COc1c(Nc2cc(C)[nH]n2)nc(Sc2ccc(NC(=O)C3CC3)cc2)nc1N1CCN(CCN(C)C)CC1`, the IC50 was under 100 nM.
In turn, `COc1c(Nc2cc(C)[nH]n2)nc(Sc2ccc(S(=O)(=O)C(C)(C)c3cccc([N+](=O)[O-])c3F)cc2F)nc1N1CCC(CCN)CC1` returned an IC50 of under 100 nM.
Molecule `COc1c(Nc2cc(C)[nH]n2)nc(Sc2ccc(S(=O)(=O)Cc3c(F)c(F)c(F)c(F)c3F)cc2F)nc1N1CCOCC1` displayed a half-inhibitory concentration (IC50) of under 100 nM.
`CNCCC1CCN(c2nc(Sc3ccc(S(=O)(=O)C(C)(C)c4cccc([N+](=O)[O-])c4F)cc3F)nc(Nc3cc(C)[nH]n3)c2OC)CC1` had a half-inhibitory concentration (IC50) of under 100 nM.
The molecule `COc1c(Nc2cc(C)[nH]n2)nc(Sc2ccc(S(=O)(=O)C(C)(C)c3c(F)c(F)c(F)c(F)c3F)cc2F)nc1N1CCOCC1` displayed a half-maximal inhibitory concentration (IC50) of under 100 nM.
For `COc1c(Nc2cc(C)[nH]n2)nc(Sc2ccc(S(=O)(=O)C(C)(C)C)cc2)nc1N1CCN(CCN(C)C)CC1`, the IC50 was under 100 nM.
For the molecule `COc1c(Nc2cc(C)[nH]n2)nc(Sc2ccc(S(=O)(=O)C(C)(C)c3cccc([N+](=O)[O-])c3F)cc2F)nc1N1CCC(NC(C)=O)CC1`, the IC50 is under 100 nM.
The value for `COc1c(Nc2cc(C)[nH]n2)nc(Sc2ccc(S(=O)(=O)C(C)(C)c3cccc([N+](=O)[O-])c3F)cc2F)nc1N1CC[C@H](NC(C)=O)C1` was under 100 nM.
For `COc1c(Nc2cc(C)[nH]n2)nc(Sc2ccc(S(=O)(=O)C(C)(C)c3cccc([N+](=O)[O-])c3F)cc2F)nc1N1CCN(CC(=O)N(C)C)CC1`, the half-inhibitory concentration (IC50) was under 100 nM.
Then `COc1c(Nc2cc(C)[nH]n2)nc(Sc2ccc(S(=O)(=O)C(C)(C)c3cccc([N+](=O)[O-])c3F)cc2F)nc1N1CC[C@H](N(C)C)C1`, with under 100 nM; and `COc1c(Nc2cc(C)[nH]n2)nc(Sc2ccc(S(=O)(=O)C(C)(C)c3cccc([N+](=O)[O-])c3F)cc2F)nc1N1CC[C@@H](N(C)C)C1`, with under 100 nM; and `COc1c(Nc2cc(C)[nH]n2)nc(Sc2ccc(S(=O)(=O)C(C)(C)c3c(F)c(F)cc(F)c3F)cc2F)nc1N1CCC(NC(C)=O)CC1`, with under 100 nM.
As for `COc1c(Nc2cc(C)[nH]n2)nc(Sc2ccc(S(=O)(=O)C(C)(C)c3c(F)c(F)cc(F)c3F)cc2F)nc1N1CC[C@H](N(C)C)C1`, the IC50 was under 100 nM.
For the molecule `COc1c(Nc2cc(C)[nH]n2)nc(Sc2ccc(S(=O)(=O)C(C)(C)c3c(F)c(F)cc(F)c3F)cc2F)nc1N1CCC(CC(=O)N(C)C)CC1`, the 50% inhibitory concentration (IC50) was under 100 nM.
For the molecule `COc1c(Nc2cc(C)[nH]n2)nc(Sc2ccc(S(=O)(=O)C(C)(C)c3c(F)c(F)cc(F)c3F)cc2F)nc1N1CC[C@@H](N(C)C)C1`, the IC50 was under 100 nM.
The value for `COc1c(Nc2cc(C)[nH]n2)nc(Sc2ccc(S(=O)(=O)C(C)(C)c3c(F)c(F)c(F)c(F)c3F)cc2F)nc1N1CCC(N(C)C)CC1` was under 100 nM; that for `COc1c(Nc2cc(C)[nH]n2)nc(Sc2ccc(S(=O)(=O)C(C)(C)c3c(F)c(F)c(F)c(F)c3F)cc2F)nc1N1CCC(CCN(C)C)CC1` was under 100 nM.
In the case of `COc1c(Nc2cc(C)[nH]n2)nc(Sc2ccc(S(=O)(=O)C(C)(C)c3cccc([N+](=O)[O-])c3F)cc2F)nc1N1CCC(O)C1` (stereo not drawn), the 50% inhibitory concentration (IC50) is under 100 nM.
With `COc1c(Nc2cc(C)[nH]n2)nc(Sc2ccc(S(=O)(=O)C(C)(C)c3c(F)c(F)c(F)c(F)c3F)cc2F)nc1N1CCN(CCN(C)C)CC1`, the half-maximal inhibitory concentration (IC50) was under 100 nM.
Take `COc1c(Nc2cc(C)[nH]n2)nc(Sc2ccc(S(=O)(=O)C(C)(C)c3c(F)c(F)cc(F)c3F)cc2F)nc1N1CCC(OC(C)=O)CC1`: the IC50 was under 100 nM.
Molecule `COc1ccc(CS(=O)(=O)c2ccc(Sc3nc(Nc4cc(C)[nH]n4)c(OC)c(N4CCOCC4)n3)c(F)c2)cc1` showed an IC50 of under 100 nM.
In the case of `COc1ccc(CS(=O)(=O)c2ccc(Sc3nc(Nc4cc(C)[nH]n4)c(OC)c(N4CCCCC4)n3)c(F)c2)cc1`, the IC50 was under 100 nM.
Consider `COc1c(Nc2cc(C)[nH]n2)nc(Sc2ccc(S(=O)(=O)C(C)(C)c3cccc([N+](=O)[O-])c3F)cc2F)nc1N1CCC(N(C)C(C)=O)CC1`, for which the half-inhibitory concentration (IC50) was under 100 nM.
`COc1c(Nc2cc(C)[nH]n2)nc(Sc2ccc(S(=O)(=O)C(C)(C)c3c(F)c(F)cc(F)c3F)cc2F)nc1N1CCC(N(C)C(C)=O)CC1`: the 50% inhibitory concentration (IC50) was under 100 nM.
`COc1ccc(CS(=O)(=O)c2ccc(Sc3nc(Nc4cc(C)[nH]n4)c(OC)c(N4CCOCC4)n3)cc2)cc1` registered an IC50 of under 100 nM.
Take `COc1ccc(CS(=O)(=O)c2ccc(Sc3nc(Nc4cc(C)[nH]n4)c(OC)c(N4CCCCC4)n3)cc2)cc1`: the IC50 was under 100 nM.
Consider `COc1c(Nc2cc(C)[nH]n2)nc(Sc2ccc(S(=O)(=O)C(C)(C)c3c(F)c(F)cc([N+](=O)[O-])c3F)cc2F)nc1N1CCN(CCN(C)C)CC1`, for which the 50% inhibitory concentration (IC50) was under 100 nM.
Molecule `COc1c(Nc2cc[nH]n2)nc(Sc2ccc(S(=O)(=O)Cc3cccc([N+](=O)[O-])c3F)cc2F)nc1N1CCOCC1` returned an IC50 of under 100 nM.
`COc1c(Nc2cc[nH]n2)nc(Sc2ccc(S(=O)(=O)Cc3cccc([N+](=O)[O-])c3F)cc2F)nc1N1CCCCC1` returned an IC50 of under 100 nM.
As for `CNC(=O)CC1CCN(c2nc(Sc3ccc(S(=O)(=O)C(C)(C)c4cccc([N+](=O)[O-])c4)cc3F)nc(Nc3cc(C)[nH]n3)c2OC)CC1`, the IC50 is under 100 nM.
Molecule `COc1c(Nc2cc(C)[nH]n2)nc(Sc2ccc(S(=O)(=O)C(C)(C)c3cccc([N+](=O)[O-])c3F)cc2F)nc1N1CCC(N)CC1` showed a half-inhibitory concentration (IC50) of under 100 nM.
The value for `COc1c(Nc2cc(C)[nH]n2)nc(Sc2ccc(S(=O)(=O)C(C)(C)c3cccc([N+](=O)[O-])c3F)cc2F)nc1N1CCC(CC(N)=O)CC1` was under 100 nM; that for `CNC1CCN(c2nc(Sc3ccc(S(=O)(=O)C(C)(C)c4cccc([N+](=O)[O-])c4F)cc3F)nc(Nc3cc(C)[nH]n3)c2OC)CC1` was under 100 nM; that for `COc1c(Nc2cc(C)[nH]n2)nc(Sc2ccc(S(=O)(=O)C(C)(C)c3cccnc3)cc2)nc1N1CCN(CCN(C)C)CC1` was under 100 nM.
`COc1c(Nc2cc(C)[nH]n2)nc(Sc2ccc(S(=O)(=O)C(C)(C)c3cccs3)cc2)nc1N1CCN(CCN(C)C)CC1` came in with an IC50 of under 100 nM.
`COc1c(Nc2cc(C)[nH]n2)nc(Sc2ccc(S(=O)(=O)C(C)(C)C3CC3)cc2)nc1N1CCN(CCN(C)C)CC1` returned an IC50 of under 100 nM.
As to `COc1c(Nc2cc(C)[nH]n2)nc(Sc2ccc(S(=O)(=O)Cc3cccc([N+](=O)[O-])c3F)cc2F)nc1N1CCNCC1`, the IC50 was under 100 nM.
For `COc1c(Nc2cc(C)[nH]n2)nc(Sc2ccc(S(=O)(=O)C(C)(C)c3cccc([N+](=O)[O-])c3)cc2F)nc1N1CCC(CCNC(C)C(F)(F)F)CC1` (stereo not drawn), the half-inhibitory concentration (IC50) is under 100 nM.
On to `COc1c(Nc2cc(C)[nH]n2)nc(Sc2ccc(S(=O)(=O)C(C)(C)c3ccccn3)cc2)nc1N1CCN(CCN(C)C)CC1`, for which the IC50 is under 100 nM.
Consider `COc1c(Nc2cc(C)[nH]n2)nc(Sc2ccc(S(=O)(=O)C(C)(C)c3nccs3)cc2)nc1N1CCN(CCN(C)C)CC1`, for which the IC50 is under 100 nM.
On to `COc1c(Nc2cc(C)[nH]n2)nc(Sc2ccc(S(=O)(=O)C(C)(C)c3cnccn3)cc2)nc1N1CCN(CCN(C)C)CC1`, for which the half-maximal inhibitory concentration (IC50) is under 100 nM.
Then `COc1c(Nc2cc(C)[nH]n2)nc(Sc2ccc(S(=O)(=O)C(C)(C)c3ccncn3)cc2)nc1N1CCN(CCN(C)C)CC1`, with under 100 nM.
As for `COc1c(Nc2cc(C)[nH]n2)nc(Sc2ccc(S(=O)(=O)Cc3ccccc3)cc2)nc1N1CCN(Cc2ccncc2)CC1`, the IC50 was under 100 nM.
The value for `COc1c(Nc2cc(C)[nH]n2)nc(Sc2ccc(S(=O)(=O)Cc3cccc(C#N)c3)cc2)nc1N1CCN(CCN(C)C)CC1` was under 100 nM.
As for `COc1ccccc1CS(=O)(=O)c1ccc(Sc2nc(Nc3cc(C)[nH]n3)c(OC)c(N3CCN(CCN(C)C)CC3)n2)cc1`, the IC50 was under 100 nM.
With `COc1c(Nc2cc(C)[nH]n2)nc(Sc2ccc(S(=O)(=O)Cc3cccc(C)c3)cc2)nc1N1CCN(CCN(C)C)CC1`, the IC50 is under 100 nM.
Take `COc1cccc(CS(=O)(=O)c2ccc(Sc3nc(Nc4cc(C)[nH]n4)c(OC)c(N4CCN(CCN(C)C)CC4)n3)cc2)c1`: the IC50 is under 100 nM.
Then `CCOc1c(Nc2cc(C)[nH]n2)nc(Sc2ccc(NC(=O)C3CC3)cc2)nc1N1CCC(O)CC1`, with under 100 nM.

These data come from US11612604B2, “Methods of treating cancer with PLK4 inhibitors” (LUDWIG INSTITUTE FOR CANCER RESEARCH LTD, priority 2017, dated 2023).
